According to US9834542B2, “LXR modulators” (BRISTOL-MYERS SQUIBB COMPANY, priority 2013, dated 2017):

Target: T1, LXRβ (Homo sapiens, UniProt P55055)
T1 construct: Co-transfection expression plasmids, comprising full-length LXRα (pCMX-h LXRα[…] or LXRβ (pCMX-hLXRβ)); expressed in transfected cells; host or cells: CV-1 African Green Monkey Kidney Cells
T1 sequence (P55055 1-460): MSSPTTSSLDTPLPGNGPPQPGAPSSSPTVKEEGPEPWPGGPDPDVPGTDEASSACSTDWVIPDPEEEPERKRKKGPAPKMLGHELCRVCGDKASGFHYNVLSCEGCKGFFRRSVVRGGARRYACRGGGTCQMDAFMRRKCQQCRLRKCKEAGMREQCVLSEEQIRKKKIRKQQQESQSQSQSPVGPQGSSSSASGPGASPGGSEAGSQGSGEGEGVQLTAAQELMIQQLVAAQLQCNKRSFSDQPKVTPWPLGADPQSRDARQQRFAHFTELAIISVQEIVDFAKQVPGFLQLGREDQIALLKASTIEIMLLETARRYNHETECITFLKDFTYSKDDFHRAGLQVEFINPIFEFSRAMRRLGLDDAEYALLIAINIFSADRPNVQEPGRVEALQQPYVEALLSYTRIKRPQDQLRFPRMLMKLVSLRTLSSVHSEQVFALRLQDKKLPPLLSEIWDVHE
T1 sequence (P19793 1-462 partner): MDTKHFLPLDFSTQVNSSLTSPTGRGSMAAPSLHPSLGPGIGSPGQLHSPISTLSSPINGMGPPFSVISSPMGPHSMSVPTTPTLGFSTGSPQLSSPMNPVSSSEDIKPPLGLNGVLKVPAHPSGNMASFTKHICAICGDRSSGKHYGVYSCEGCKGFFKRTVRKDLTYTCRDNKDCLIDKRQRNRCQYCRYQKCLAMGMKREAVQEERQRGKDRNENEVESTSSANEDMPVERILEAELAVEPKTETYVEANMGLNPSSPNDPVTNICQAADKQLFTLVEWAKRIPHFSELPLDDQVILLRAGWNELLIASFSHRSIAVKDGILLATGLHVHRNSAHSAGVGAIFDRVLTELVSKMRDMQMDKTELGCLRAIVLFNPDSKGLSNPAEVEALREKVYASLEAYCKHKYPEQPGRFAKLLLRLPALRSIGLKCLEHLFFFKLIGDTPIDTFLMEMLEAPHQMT
Test: Co-transfection assay (LXRE luciferase reporter), LXRβ
Format: cell-based
Details: for EC50: CV-1 cells transfected with pCMX-hLXRβ and LXREx1-Tk-Luciferase, 20 hours incubation; for Emax: LXRβ co-transfection, relative to high control 1-(2,4-difluorobenzyl)-2-oxo-6-(4-phenoxyphenyl)-4-(trifluoromethyl)-1,2-dihydropyridine-3-carbonitrile, read-out: % Efficacy
Outline: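 CV-1 cells transiently co-transfected with full-length human LXRβ expression plasmid, LXREx1-Tk-luciferase reporter and β-galactosidase control, then exposed to compound for 20 h at 37 °C. Luciferase luminescence read; EC50 from 11-point, ½-log dose–response fit, efficacy relative to high-control agonist maximum.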

| SMILES | EC50 [µM] | Emax [%] |
| --- | --- | --- |
| Cc1nc(C(F)(F)F)cn1-c1ccc(-c2cc(F)c(CO)c(S(C)(=O)=O)c2)c(Cl)c1-n1nncc1-c1ccc(Cl)cc1 [Example 102, {2′-chloro-3′-[5-(4-chlorophenyl)-1H-1,2,3-triazol-1-yl]-3-fluoro-5-(methylsulfonyl)-4′-[2-methyl-4-(trifluoromethyl)-1H-imidazol-1-yl]biphenyl-4-yl}methanol] | 1.94 | 57 |
| Cc1nc(C(F)(F)F)cn1-c1ccc(-c2cccc(S(C)(=O)=O)c2)cc1-n1nncc1Cc1cccc(Cl)c1 [Example 121, 5-[(3-chlorophenyl)methyl]-1-{3′-(methylsulfonyl)-4-[2-methyl-4-(trifluoromethyl)-1H-imidazol-1-yl]biphenyl-3-yl}-1H-1,2,3-triazole] | 0.651 | 100 |
| Cc1nc(C(F)(F)F)cn1-c1ccc(-c2cccc(S(C)(=O)=O)c2)cc1-n1nncc1-c1ccc(C(F)F)cc1 [Example 5, 5-[4-(difluoromethyl)phenyl]-1-{3′-(methylsulfonyl)-4-[2-methyl-4-(trifluoromethyl)-1H-imidazol-1-yl]biphenyl-3-yl}-1H-1,2,3-triazole] | 0.258 | 91 |
| Cc1nc(-c2cc(-c3cc(F)c(CO)c(S(C)(=O)=O)c3)ccc2-n2cc(C(F)(F)F)nc2C)c(-c2ccc(OC(F)F)cc2Cl)o1 [Example 397, (3′-(5-(2-chloro-4-(difluoromethoxy)phenyl)-2-methyloxazol-4-yl)-3-fluoro-4′-(2-methyl-4-(trifluoromethyl)-1H-imidazol-1-yl)-5-(methylsulfonyl)biphenyl-4-yl)methanol] | 0.025 | 63 |
| Cc1nc(C(F)(F)F)cn1-c1ccc(-c2cccc(S(C)(=O)=O)c2)cc1-n1nncc1-c1ccc(OC(F)(F)F)c(F)c1 [Example 54, 5-{3-fluoro-4-[(trifluoromethyl)oxy]phenyl)-1-{3′-(methylsulfonyl)-4-[2-methyl-4-(trifluoromethyl)-1H-imidazol-1-yl]biphenyl-3-yl}-1H-1,2,3-triazole] | 0.148 | 84 |
| Cc1nc(C(F)(F)F)cn1-c1ccc(-c2cccc(S(C)(=O)=O)c2)cc1-n1nncc1C(C)(C)c1ccc(Cl)cc1 [Example 222, 5-(2-(4-chlorophenyl)propan-2-yl)-1-(4-(2-methyl-4-(trifluoromethyl)-1H-imidazol-1-yl)-3′-(methylsulfonyl)-[1,1′-biphenyl]-3-yl)-1H-1,2,3-triazole] | 1.85 | 43 |
| Cc1nc(-c2cc(-c3cc(F)c(CO)c(S(C)(=O)=O)c3)ccc2-n2cc(C(F)(F)F)nc2C)c(-c2ccc(C(F)(F)F)nc2Cl)o1 [Example 477, (3′-(5-(2-chloro-6-(trifluoromethyl)pyridin-3-yl)-2-methyloxazol-4-yl)-3-fluoro-4′-(2-methyl-4-(trifluoromethyl)-1H-imidazol-1-yl)-5-(methylsulfonyl)biphenyl-4-yl)methanol] | 0.271 | 66 |
| Cc1nc(C(F)(F)F)cn1-c1ccc(-c2cccc(S(C)(=O)=O)c2)cc1-c1oc(CCN(C)C)nc1-c1ccc(OC(F)(F)F)cc1 [Example 628, N,N-dimethyl-2-(5-(4-(2-methyl-4-(trifluoromethyl)-1H-imidazol-1-yl)-3′-(methylsulfonyl)-[1,1′-biphenyl]-3-yl)-4-(4-(trifluoromethoxy)phenyl)oxazol-2-yl)ethanamine] | 0.412 | 82 |
| Cc1nc(-c2cc(-c3cccc(S(C)(=O)=O)c3)ccc2-n2cc(C(F)(F)F)nc2C)c(-c2ccc(OC(F)F)cc2Cl)o1 [Example 396, 5-(2-chloro-4-(difluoromethoxy)phenyl)-2-methyl-4-(4-(2-methyl-4-(trifluoromethyl)-1H-imidazol-1-yl)-3′-(methylsulfonyl)biphenyl-3-yl)oxazole] | 0.034 | 71 |
